Experimental data from PubChem BioAssay (NCI).
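Cells were grown in 96-well plates and exposed to each compound for 48 hours at five concentrations; endpoints were interpolated linearly between bracketing concentrations, or set to the highest concentration if not reached. Abbreviation: GI50, concentration required for 50% inhibition of growth. TGI: total growth inhibition.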

What was measured:
Assay in all cases: NCI anticancer screen, dose series, 48 h
COLO 205 colon = test system: COLO 205 colon
MDA-MB-435 = test system: MDA-MB-435
MOLT-4 leukemia = test system: MOLT-4 leukemia
NCI/ADR-RES ovarian = test system: NCI/ADR-RES ovarian
OVCAR-3 ovarian = test system: OVCAR-3 ovarian
PC-3 prostate = test system: PC-3 prostate
RPMI-8226 leukemia = test system: RPMI-8226 leukemia
RXF 393 renal = test system: RXF 393 renal
SF-539 CNS = test system: SF-539 CNS
SK-MEL-28 melanoma = test system: SK-MEL-28 melanoma

| Structure (SMILES) | GI50 (COLO 205 colon) | TGI (COLO 205 colon) | GI50 (MDA-MB-435) | TGI (MDA-MB-435) | GI50 (MOLT-4 leukemia) | TGI (MOLT-4 leukemia) | GI50 (NCI/ADR-RES ovarian) | TGI (NCI/ADR-RES ovarian) | GI50 (OVCAR-3 ovarian) | TGI (OVCAR-3 ovarian) | GI50 (PC-3 prostate) | TGI (PC-3 prostate) | GI50 (RPMI-8226 leukemia) | TGI (RPMI-8226 leukemia) | GI50 (RXF 393 renal) | TGI (RXF 393 renal) | GI50 (SF-539 CNS) | TGI (SF-539 CNS) | GI50 (SK-MEL-28 melanoma) | TGI (SK-MEL-28 melanoma) |
| --- | --- | --- | --- | --- | --- | --- | --- | --- | --- | --- | --- | --- | --- | --- | --- | --- | --- | --- | --- | --- |
| O=C(Nc1cccc(Cl)c1)c1cccc(NC2=C(Cl)C(=O)N(Cc3ccccc3)C2=O)c1 | > 100 µM | > 100 µM | 25.9 µM | 91.3 µM | 22.2 µM | > 100 µM | 89.8 µM | > 100 µM | 24.3 µM | > 100 µM | 21.9 µM | 93.1 µM | 7.58 µM | 53.3 µM | 85 µM | > 100 µM | 81.8 µM | > 100 µM | > 100 µM | > 100 µM |
| CSC(=S)OC1CC(n2cnc3c(NC(=O)c4ccccc4)ncnc32)OC1CO[Si](C)(C)C(C)(C)C (centres undefined) | – | 18.1 µM | – | 27.9 µM | – | 14.8 µM | – | > 56.2 µM | – | 34.4 µM | – | > 46.4 µM | – | 43 µM | – | > 65.8 µM | – | > 46.4 µM | – | > 46.4 µM |
| CC1=C(C(=O)Nc2cc(Cl)c3[nH]ncc3c2)C(c2ccc(C(F)(F)F)cc2)CC(=O)N1 (centres undefined) | 14.8 µM | > 25 µM | > 23.3 µM | > 25 µM | 11.8 µM | > 25 µM | > 25 µM | > 25 µM | > 25 µM | > 25 µM | > 25 µM | > 25 µM | 24.9 µM | > 25 µM | 2.37 µM | > 25 µM | 14.8 µM | > 25 µM | > 25 µM | > 25 µM |
| CC([C@H]1CCC2C3CCC4C[C@@H](N)CC[C@]4(C)C3CC[C@@]21C)N(C)C (some centres undefined) | 1.89 µM | 4.37 µM | 2.26 µM | 5.27 µM | 5.02 µM | 17.2 µM | 15.1 µM | 48.7 µM | 6.96 µM | 21.2 µM | 8.52 µM | 33 µM | 3.04 µM | 11.7 µM | 4.55 µM | 14.9 µM | 2.01 µM | 4.98 µM | 1.91 µM | 3.66 µM |
| Fc1cccc(-n2ccc(-c3ccccc3)nc2=S)c1 | – | 3.82 µM | 99.7 µM | > 100 µM | 54 µM | > 100 µM | 18.3 µM | 41.4 µM | 19 µM | 40.6 µM | 17.5 µM | 39.4 µM | 47.1 µM | > 100 µM | 15.8 µM | 30 µM | 17.6 µM | 38.9 µM | 71.9 µM | > 100 µM |
| Oc1ccc(C2c3ccccc3Oc3ccccc32)c2cccnc12 | 3.18 µM | > 100 µM | 3.07 µM | > 100 µM | 1.96 µM | > 100 µM | 1.59 µM | > 100 µM | 2.45 µM | > 100 µM | 1.9 µM | > 100 µM | 1.7 µM | > 100 µM | 1.68 µM | 7.1 µM | 2.53 µM | 25.5 µM | 5.12 µM | > 100 µM |
